From patent US8399465B2, “Compounds with two fused bicyclic heteroaryl moieties as modulators of leukotriene A4 hydrolase” (Janssen Pharmaceutica NV, priority 2009, dated 2013) come the findings set out here.

Structures are written as SMILES. Counter-ions that a name gives are not always drawn.

Test [1] deals with T1, recombinant human LTA4 hydrolase (rhLTA4H) (Homo sapiens, UniProt P09960).
T1 construct: made in house; host or cells: Spodoptera frugiperda (Sf-9) cells, baculovirus (pFastBac1)
T1 sequence (P09960 1-611): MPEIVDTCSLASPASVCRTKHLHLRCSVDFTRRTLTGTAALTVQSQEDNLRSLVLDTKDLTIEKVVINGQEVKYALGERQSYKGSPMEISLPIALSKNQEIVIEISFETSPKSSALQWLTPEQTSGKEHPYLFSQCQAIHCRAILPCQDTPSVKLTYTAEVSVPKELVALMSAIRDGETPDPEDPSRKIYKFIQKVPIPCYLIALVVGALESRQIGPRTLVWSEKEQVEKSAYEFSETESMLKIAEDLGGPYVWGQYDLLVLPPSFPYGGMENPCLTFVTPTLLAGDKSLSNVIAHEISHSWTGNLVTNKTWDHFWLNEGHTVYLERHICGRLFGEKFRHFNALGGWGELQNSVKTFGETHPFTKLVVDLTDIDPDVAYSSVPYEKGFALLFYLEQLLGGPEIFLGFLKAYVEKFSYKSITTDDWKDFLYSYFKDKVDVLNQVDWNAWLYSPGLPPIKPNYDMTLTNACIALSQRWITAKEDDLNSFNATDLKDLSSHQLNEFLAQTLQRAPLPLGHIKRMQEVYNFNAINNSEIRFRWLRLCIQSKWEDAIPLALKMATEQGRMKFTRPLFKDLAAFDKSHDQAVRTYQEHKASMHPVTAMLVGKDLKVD
As to the kind of experiment: Recombinant human LTA4 hydrolase assay for LTA4 hydrolase inhibitor activity. The note with it: rhLTA4H, LTB4 by immunoassay; single determination or average of two or more; mark after value = form tested: ′ free base, ″ hydrochloride, ^ formate; read-out: IC50. Type of test: biochemical. Put shortly:
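LTB4 formation, measured by enzyme immunoassay, was the read-out. The enzyme, recombinant human LTA4H expressed in Sf-9 insect cells (10 ng per reaction), was exposed to compound for 10 min at room temperature before hydrolysed-ester LTA4 substrate was added for 30 min. Enzyme-free negatives were included.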

In test [2] the test system is LTB4 production in murine blood (LTA4H). As to the kind of experiment: LTB4 production by calcium ionophore-stimulated murine blood for LTA4H inhibitor activity. Type of test: cell-based, CD-1 mice. The note with it: Mus musculus; murine blood diluted 1 in 15, A23187 stimulated; single determination or average; mark after value = form tested: ′ free base, ″ hydrochloride, ^ formate; read-out: IC50. As to the method:
Assay 2: LTB4 Production by Calcium Ionophore-Stimulated Murine Blood for LTA4H Inhibitor Activity
CD-1 mice were sacrificed, and blood was collected in heparin-containing syringes by cardiac puncture. […] After the microtiter plate contents were incubated for 15 min at 37° C. in a humidified incubator, calcium ionophore A23187 (Sigma Chemical Co., St. Louis, Mo.) was added to each sample well (final concentration=7 μg/mL). The incubation was continued under the same conditions for an additional 30 min to allow LTB4 formation. The reaction was terminated by centrifugation (833×g, 10 min at 4° C.), and supernatants were analyzed for LTB4 by a commercially available enzyme-linked immunoassay (Cayman Chemical Co.) according to the manufacturer's instructions. Positive controls, under essentially identical conditions but without addition of an inhibitor compound, and negative unstimulated controls, containing all assay components except calcium ionophore, were routinely run in each experiment. […] The values presented here are the result of a single determination or an average of two or more determinations.

By IC50 is commonly meant the concentration that gives 50% inhibition.

On to `CCOC(=O)C1CCN(Cc2c[nH]c3cc(Oc4nc5cccnc5s4)ccc23)CC1` [Example 140, 1-[6-(Thiazolo[5,4-b]pyridin-2-yloxy)-1H-indol-3-ylmethyl]-piperidine-4-carboxylic acid ethyl ester], for which the IC50 in test [1] worked out at 21 nM; in test [2], 8510 nM.

Consider `O=C(O)C1CCCN(Cc2c[nH]c3cc(Oc4nc5ccccc5s4)ccc23)C1` (centres unmarked) [Example 47, 1-[6-(Benzothiazol-2-yloxy)-1H-indol-3-ylmethyl]-piperidine-3-carboxylic acid], for which the IC50 in test [1] came to 21 nM; in test [2] it was 870 nM.

As to `CC(=O)N1CCN(Cc2cc3cc(Oc4nc5ncccc5s4)ccc3o2)CC1` [Example 259, 1-{4-[5-(Thiazolo[4,5-b]pyridin-2-yloxy)-benzofuran-2-ylmethyl]-piperazin-1-yl}ethanone formate], the IC50 in test [1] stood at 5 nM; in test [2] it was 74 nM.

Regarding `NC(=O)N1C[C@@H]2C[C@H]1CN2C(=O)c1coc2cc(Oc3nc4ncccc4s3)ccc12` [Example 375, (1S,4S)-5-[6-(Thiazolo[4,5-b]pyridin-2-yloxy)-benzofuran-3-carbonyl]-2,5-diaza-bicyclo[2.2.1]heptane-2-carboxylic acid amide], the results for the concentration for half-maximal inhibition (IC50) in test [1] and in test [2] were 41 nM and 610 nM, respectively.

As to `CC(=O)N(C(C)C)C1CCN(Cc2coc3cc(Oc4nc5ncccc5s4)ccc23)CC1` [Example 323, N-Isopropyl-N-{1-[6-(thiazolo[4,5-b]pyridin-2-yloxy)-benzofuran-3-ylmethyl]-piperidin-4-yl}-acetamide], the IC50 in test [1] was 9 nM; in test [2], 41 nM.

Take `CN(C)C1CCN(Cc2coc3cc(Oc4nc5ncccc5s4)ccc23)CC1` [Example 282, Dimethyl-{1-[6-(thiazolo[4,5-b]pyridin-2-yloxy)-benzofuran-3-ylmethyl]-piperidin-4-yl}-amine formate]: the figures for the IC50 in test [1] and in test [2] were 17 nM and 72 nM, respectively.

As for `NC(=O)N1CC2CN(Cc3cc4ccc(Oc5nc6ncccc6s5)cc4o3)CC2C1` (centres unmarked) [Example 194, 5-[6-(Thiazolo[4,5-b]pyridin-2-yloxy)-benzofuran-2-ylmethyl]-hexahydro-pyrrolo[3,4-c]pyrrole-2-carboxylic acid amide], the values for the 50% inhibitory concentration (IC50) in test [1] and in test [2] were 39 nM and 260 nM, respectively.

For the compound `CC(=O)N[C@H]1C[C@H]2CC[C@@H](C1)N2Cc1c[nH]c2cc(Oc3nc4ccccc4s3)ccc12` [Example 13, meso-endo-N-{8-[6-(Benzothiazol-2-yloxy)-1H-indol-3-ylmethyl]-8-aza-bicyclo[3.2.1]oct-3-yl}-acetamide], the IC50 in test [1] is 2 nM; in test [2], 100 nM.

As for `OC1(c2ccc(Cl)cc2)CCN(Cc2coc3cc(Oc4nc5ncccc5s4)ccc23)CC1` [Example 347, 4-(4-Chloro-phenyl)-1-[6-(thiazolo[4,5-b]pyridin-2-yloxy)-benzofuran-3-ylmethyl]-piperidin-4-ol], the IC50 in test [1] turned out to be 24 nM; in test [2], 130 nM.

As to `CC(C)(C)NCc1coc2cc(Oc3nc4ncccc4s3)ccc12` [Example 301, tert-Butyl-[6-(thiazolo[4,5-b]pyridin-2-yloxy)-benzofuran-3-ylmethyl]-amine formate], the IC50 in test [1] is 15 nM; in test [2] it was 4 nM.

`NC(=O)N1C[C@H]2CC[C@@H](C1)N2Cc1cc2cc(Oc3nc4ncccc4s3)ccc2o1` [Example 94, meso-8-[5-(Thiazolo[4,5-b]pyridin-2-yloxy)-benzofuran-2-ylmethyl]-3,8-diaza-bicyclo[3.2.1]octane-3-carboxylic acid amide]: the IC50 in test [1] stood at 102 nM; in test [2], 202 nM.

With `CC(=O)N[C@H]1C[C@H]2CC[C@@H](C1)N2Cc1c[nH]c2cc(Oc3nc4c(F)cccc4s3)ccc12` [Example 14, meso-endo-N-{8-[6-(4-Fluoro-benzothiazol-2-yloxy)-1H-indol-3-ylmethyl]-8-aza-bicyclo[3.2.1]oct-3-yl}-acetamide], the IC50 in test [2] worked out at 66 nM.
